Several values for one entry are separate records, joined by “and”; a condition that tells them apart may be missing. Equal values may be shown once.
Legend:
[1] = wn = mass fraction of the nth substance listed; settings: Capillary rise
[2] = Capillary rise

COC [dimethyl ether] + CCC
[1]
Settings | surface tension liquid-gas
243.4 K, w1 = 0.4975 | 16 mN/m
243.46 K, w1 = 0.6949 | 17.3 mN/m and 17.2 mN/m
243.56 K, w1 = 0.3007 | 15.2 mN/m
248.19 K, w1 = 0.4975 | 15.4 mN/m
248.27 K, w1 = 0.3007 | 14.5 mN/m
248.43 K, w1 = 0.6949 | 16.7 mN/m and 16.6 mN/m
253.08 K, w1 = 0.3007 | 13.9 mN/m
253.09 K, w1 = 0.4975 | 14.7 mN/m
253.23 K, w1 = 0.6949 | 15.9 mN/m and 15.8 mN/m
258.34 K, w1 = 0.6949 | 15.2 mN/m
258.38 K, w1 = 0.4975 | 13.9 mN/m and 14 mN/m
258.42 K, w1 = 0.3007 | 13.1 mN/m
263.11 K, w1 = 0.4975 | 13.4 mN/m
263.16 K, w1 = 0.6949 | 14.4 mN/m
263.33 K, w1 = 0.3007 | 12.4 mN/m
268.05 K, w1 = 0.3007 | 11.8 mN/m
268.16 K, w1 = 0.4975 | 12.7 mN/m
268.16 K, w1 = 0.6949 | 13.7 mN/m
273.14 K, w1 = 0.3007 | 11.1 mN/m
273.15 K, w1 = 0.6949 | 12.9 mN/m
273.16 K, w1 = 0.4975 | 11.9 mN/m and 12 mN/m
278.13 K, w1 = 0.3007 | 10.5 mN/m
278.15 K, w1 = 0.4975 | 11.3 mN/m
278.16 K, w1 = 0.6949 | 12.3 mN/m
283.13 K, w1 = 0.3007 | 9.8 mN/m
283.16 K, w1 = 0.4975 | 10.6 mN/m
283.16 K, w1 = 0.6949 | 11.6 mN/m
288.12 K, w1 = 0.3007 | 9.1 mN/m
288.15 K, w1 = 0.4975 | 10 mN/m
288.15 K, w1 = 0.6949 | 11 mN/m and 11.1 mN/m
293.11 K, w1 = 0.3007 | 8.4 mN/m and 8.5 mN/m
293.13 K, w1 = 0.4975 | 9.3 mN/m
293.17 K, w1 = 0.6949 | 10.4 mN/m
298.08 K, w1 = 0.3007 | 7.8 mN/m and 7.9 mN/m
298.09 K, w1 = 0.4975 | 8.7 mN/m
298.1 K, w1 = 0.6949 | 9.6 mN/m
303.12 K, w1 = 0.4975 | 8 mN/m
303.15 K, w1 = 0.3007 | 7 mN/m and 7.1 mN/m
303.17 K, w1 = 0.6949 | 9.1 mN/m
308.08 K, w1 = 0.4975 | 7.4 mN/m
308.11 K, w1 = 0.3007 | 6.5 mN/m
308.11 K, w1 = 0.6949 | 8.5 mN/m and 8.4 mN/m
313.17 K, w1 = 0.3007 | 5.9 mN/m
313.17 K, w1 = 0.4975 | 6.6 mN/m and 6.7 mN/m
313.18 K, w1 = 0.6949 | 7.7 mN/m
318.13 K, w1 = 0.3007 | 5.3 mN/m
318.13 K, w1 = 0.4975 | 6.1 mN/m
318.16 K, w1 = 0.6949 | 7.1 mN/m
323.17 K, w1 = 0.3007 | 4.8 mN/m
323.17 K, w1 = 0.4975 | 5.5 mN/m
323.17 K, w1 = 0.6949 | 6.5 mN/m and 6.4 mN/m
328.12 K, w1 = 0.3007 | 4.2 mN/m
328.13 K, w1 = 0.4975 | 4.9 mN/m and 5 mN/m
328.14 K, w1 = 0.6949 | 5.9 mN/m and 5.8 mN/m
333.12 K, w1 = 0.3007 | 3.7 mN/m
333.13 K, w1 = 0.6949 | 5.3 mN/m and 5.2 mN/m
333.14 K, w1 = 0.4975 | 4.3 mN/m

CCC [propane]
[2]
Settings | surface tension liquid-gas [mN/m]
278.18 K | 9.5
283.18 K | 8.9
288.19 K | 8.3
293.18 K | 7.7
298.1 K | 7.1
303.18 K | 6.4

COC [dimethyl ether]
[2]
Settings | surface tension liquid-gas [mN/m]
278.16 K | 14.7
283.21 K | 13.9
288.17 K | 13.1
293.15 K | 12.6
298.1 K | 11.8
303.13 K | 11

— the NIST ThermoML archive (doi:10.1016/j.fluid.2010.07.026)
